Results published in EP4803142A2 (Kayothera Inc., priority 2021, dated 2022).

Key:
hALDH1a2 = target: T1, hALDH1a2 (Homo sapiens, UniProt O94788); assay: biochemical; conditions: read-out: hAldhla2 IC50
T1 construct: pET-Aldh1a2 transformed BL21-DE3 cultures; cell extracts
T1 sequence (O94788 1-518): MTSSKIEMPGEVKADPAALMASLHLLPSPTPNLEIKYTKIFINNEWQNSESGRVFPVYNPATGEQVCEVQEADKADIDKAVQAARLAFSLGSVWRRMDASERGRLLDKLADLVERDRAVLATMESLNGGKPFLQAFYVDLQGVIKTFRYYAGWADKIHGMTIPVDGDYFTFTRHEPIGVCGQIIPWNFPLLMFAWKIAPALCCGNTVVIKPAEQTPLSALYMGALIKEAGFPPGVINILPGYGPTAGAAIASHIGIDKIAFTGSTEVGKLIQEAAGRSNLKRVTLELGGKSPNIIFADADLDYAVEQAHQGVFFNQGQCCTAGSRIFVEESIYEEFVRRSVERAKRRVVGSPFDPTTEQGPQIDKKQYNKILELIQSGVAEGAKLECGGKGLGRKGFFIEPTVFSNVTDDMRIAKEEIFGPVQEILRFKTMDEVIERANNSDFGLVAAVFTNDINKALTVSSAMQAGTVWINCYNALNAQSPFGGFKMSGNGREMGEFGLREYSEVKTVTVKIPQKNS
Experimental: (§1) Biological Example 5C. Aldh1a2 Enzyme Inhibition Assay
(§2) Cell extracts were spun at 16000 x g for 5 minutes.
(§3) Recombinant enzyme and inhibitor added immediately before assay. Reaction rate measured by resorufin fluorescence. […]
(§4) Table 3B. IC50 values (nM) for inhibition of hALDH1a2 and mALDH1a2 of selected compounds

mALDH1a2 = target: T2, mALDH1a2 (Mus musculus, UniProt Q62148); assay: biochemical; conditions: read-out: mAldhla2 IC50
T2 construct: pET-Aldh1a2 transformed BL21-DE3 cultures; cell extracts
T2 sequence (Q62148 1-518): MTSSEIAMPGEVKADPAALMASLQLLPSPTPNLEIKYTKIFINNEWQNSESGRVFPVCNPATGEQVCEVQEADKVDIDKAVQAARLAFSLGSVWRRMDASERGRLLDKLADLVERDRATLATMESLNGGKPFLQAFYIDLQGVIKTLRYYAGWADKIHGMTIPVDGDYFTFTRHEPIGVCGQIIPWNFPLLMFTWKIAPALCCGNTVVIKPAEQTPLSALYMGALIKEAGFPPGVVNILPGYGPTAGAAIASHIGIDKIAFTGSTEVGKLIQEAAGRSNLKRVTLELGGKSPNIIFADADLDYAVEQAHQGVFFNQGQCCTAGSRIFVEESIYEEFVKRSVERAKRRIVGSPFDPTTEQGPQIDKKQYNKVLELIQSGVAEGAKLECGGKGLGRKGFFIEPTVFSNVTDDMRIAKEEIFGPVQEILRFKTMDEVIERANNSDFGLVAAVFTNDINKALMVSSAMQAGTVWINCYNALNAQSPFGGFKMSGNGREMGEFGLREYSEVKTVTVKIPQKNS
Experimental: as §1, §2, §3, §4

## CC1(C)Cc2cc(Nc3cc(Cl)c(Cl)cn3)ccc2NC1=O [compound 125]
hALDH1a2
  IC50: 4490 nM
mALDH1a2
  IC50: 4050 nM

## O=C1CCc2cc(Nc3cnc4ccccc4n3)ncc2N1 [compound 126]
hALDH1a2
  IC50: 214 nM
mALDH1a2
  IC50: 165 nM

## CC1(C)Cc2cc(Nc3ccc4c(n3)CCCC4=O)ccc2NC1=O [compound 127]
hALDH1a2
  IC50: 894 nM
mALDH1a2
  IC50: 1290 nM

## Cc1nc(Nc2ccc3c(c2)CC(C)(C)C(=O)N3)nc2ccccc12 [compound 132]
hALDH1a2
  IC50: 71 nM
mALDH1a2
  IC50: 53 nM

## Cc1cc2ccccc2nc1Nc1ccc2c(c1)CC(C)(C)C(=O)N2 [compound 134]
hALDH1a2
  IC50: 125 nM
mALDH1a2
  IC50: 97 nM

## CC1(C)Cc2cc(Nc3c[nH]c4c(c3=O)CCCC4)ccc2NC1=O [compound 135]
hALDH1a2
  IC50: > 10000 nM
mALDH1a2
  IC50: > 10000 nM

## CCc1cnccc1C(=O)Nc1ccc2c(c1)C(F)(F)C(=O)N2 [compound 136]
hALDH1a2
  IC50: > 10000 nM
mALDH1a2
  IC50: > 10000 nM

## CCc1cnccc1C(=O)Nc1ccc2c(c1)C(C)(C)C(=O)N2 [compound 137]
hALDH1a2
  IC50: > 10000 nM
mALDH1a2
  IC50: > 100000 nM
